Laboratory results published in patent US10092002B2, “Herbicidal composition comprising nicosulfuron or its salt and S -metolachlor or its salt” (ISHIHARA SANGYO KAISHA, LTD., priority 2011, dated 2018).

How the values were obtained:
Assay type in all cases: in vivo
[1] = system: Japanese bristlegrass (Setaria faberi Herrm); assay: Test Example 7: soil treatment, residual activity, Japanese bristlegrass sown 14 days after treatment; settings: seeds sown on the 14th day after treatment, 21st day after sowing
Description: (§1) When the herbicidal activity in a case where two active ingredients are combined, is larger than the simple sum of the respective herbicidal activities of the two active ingredients (the expected activity), it is called a synergistic effect. The activity expected by the combination of two active ingredients can be calculated as follows (Colby S. R., “Weed”, vol. 15, p. 20-22, 1967). E1=α+β-(α×β÷100) On the 22nd day after treatment, the state of growth of the common cocklebur was visually observed to determine the growth inhibition rate in accordance with the following evaluation standard. The growth inhibition rate (%) (measured value) and the growth inhibition rate (%) (calculated value) calculated by the Colby's formula are shown in Table 1. […] Upland field soil was put into a 1/500,000 ha pot, and on the next day, predetermined amounts of […] Dual Gold (tradename) were diluted with water (corresponding to 300 L/ha) and applied for soil treatment by a small sprayer. On the 14th day after treatment, seeds of Japanese bristlegrass (Setaria faberi Herrm) and spotted knotweed, (Polygonum lapathifolium L.) were sown. On the 21st day after sowing, the state of growth of the Japanese bristlegrass and the spotted knotweed was visually observed to determined the growth inhibition rate.

[2] = system: Japanese millet (Echinochloa utilis Ohwi et Yabuno); assay: Test Example 2: soil treatment, Japanese millet, visual growth inhibition rate; settings: soil treatment the day after sowing, 27th day after treatment
Description: When the herbicidal activity in a case where two active ingredients are combined, is larger than the simple sum of the respective herbicidal activities of the two active ingredients (the expected activity), it is called a synergistic effect. The activity expected by the combination of two active ingredients can be calculated as follows (Colby S. R., “Weed”, vol. 15, p. 20-22, 1967). E1=α+β−(α×β÷100) On the 22nd day after treatment, the state of growth of the common cocklebur was visually observed to determine the growth inhibition rate in accordance with the following evaluation standard. The growth inhibition rate (%) (measured value) and the growth inhibition rate (%) (calculated value) calculated by the Colby's formula are shown in Table 1. […] Upland field soil was put into a 1/1,000,000 ha pot, and seeds of Japanese millet (Echinochloa utilis Ohwi et Yabuno) were sown. […] On the 27th day after treatment, the state of growth of the Japanese millet was visually observed to determine the growth inhibition rate.

[3] = system: sunn-hemp (Crotalaria juncea L.); assay: Test Example 4: soil treatment, sunn-hemp, visual growth inhibition rate; settings: soil treatment the day after sowing, 28th day after treatment
Description: In a case where three active ingredients are combined, the activity can be similarly calculated as follows. E2=(α+β+γ)−(αβ+αγ+βγ)/100+(αβγ)/10000 where α: growth inhibition rate when treated with x (g/ha) of herbicide X,
(§2) Growth inhibition rate (%)=0 (equivalent to the non-treated area) to 100 (complete kill)
Upland field soil was put into a 1/300,000 ha pot, and seeds of sunn-hemp (Crotalaria juncea L.) were sown.

[4] = system: green kyllinga (Kyllinga brevifolia Rottb. var. leiolepis) having lowered sensitivity to herbicides; assay: Test Example 6: foliar treatment of green kyllinga having lowered sensitivity to herbicides, visual growth inhibition rate; settings: foliar treatment at height 5 to 7 cm, 21st day after treatment
Description: When the herbicidal activity in a case where two active ingredients are combined, is larger than the simple sum of the respective herbicidal activities of the two active ingredients (the expected activity), it is called a synergistic effect. The activity expected by the combination of two active ingredients can be calculated as follows (Colby S. […] E1=α+β-(α×β÷100) On the 22nd day after treatment, the state of growth of the common cocklebur was visually observed to determine the growth inhibition rate in accordance with the following evaluation standard. The growth inhibition rate (%) (measured value) and the growth inhibition rate (%) (calculated value) calculated by the Colby's formula are shown in Table 1. […] Upland field soil was put into a 1/1,000,000 ha pot, and rhizomes of green […] brevifolia Rottb. var. leiolepis) having lowered sensitivity to herbicides were planted. When the height of green […] reached 5 to 7 cm, predetermined amounts of […] Dual Gold (tradename) were diluted with water (corresponding to 300 Uha) and applied for foliar treatment by a small sprayer. On the 21st day after treatment, the state of growth of the green […] visually observed to determine the growth inhibition rate.

[5] = system: annual bluegrass (Poa annua L.) having lowered sensitivity to herbicides; assay: Test Example 8: foliar treatment of annual bluegrass having lowered sensitivity to herbicides, visual growth inhibition rate; settings: foliar treatment at 5 to 6-leaf stage, 14th day after treatment
Description: When the herbicidal activity in a case where two active ingredients are combined, is larger than the simple sum of the respective herbicidal activities of the two active ingredients (the expected activity), it is called a synergistic effect. The activity expected by the combination of two active ingredients can be calculated as follows (Colby S. R., “Weed”, vol. 15, p. 20-22, 1967). E1=α+β−(α×β÷100)
as §2
Upland field soil was put into a 1/1,000,000 ha pot, and seeds of annual bluegrass (Poa annua L.) having lowered sensitivity to herbicides were sown. When the annual bluegrass reached 5 to 6-leaf stage, predetermined amounts of ONEHOPE NYUZAI (tradename) and Dual Gold (tradename) were diluted with water (corresponding to 300 L/ha) and applied for foliar treatment by a small sprayer.
The growth inhibition rate (%) (measured value) and the growth inhibition rate (%) calculated in the same manner as in Test Example 1 are shown in Table 9.

[6] = system: spotted knotweed (Polygonum lapathifolium L.); assay: Test Example 7: soil treatment, residual activity, spotted knotweed sown 14 days after treatment; settings: seeds sown on the 14th day after treatment, 21st day after sowing
Description: as §1

Molecule | Growth inhibition rate (%) of Japanese bristlegrass, Measured value ([1]; dose 250 g/ha) [%] | Growth inhibition rate (%) of Japanese millet, Measured value ([2]; dose 500 g/ha) [%] | Growth inhibition rate (%) of sunn-hemp, Measured value ([3]; dose 250 g/ha) [%] | Growth inhibition rate (%) of sunn-hemp, Measured value ([3]; dose 2000 g/ha) [%] | Growth inhibition rate (%) of green kyllinga, Measured value ([4]; dose 500 g/ha) [%] | Growth inhibition rate (%) of green kyllinga, Measured value ([4]; dose 1000 g/ha) [%] | Growth inhibition rate (%) of annual bluegrass, Measured value ([5]; dose 1000 g/ha) [%] | Growth inhibition rate (%) of annual bluegrass, Measured value ([5]; dose 2000 g/ha) [%] | Growth inhibition rate (%) of spotted knotweed, Measured value ([6]; dose 1000 g/ha) [%] | inhibition at 100 g/ha ([1]; Setaria faberi, dose 100 g/ha, read-out: Growth inhibition rate (%) of Japanese bristlegrass, Measured value) [%] | inhibition at 15 g/ha ([2]; dose 15 g/ha, read-out: Growth inhibition rate (%) of Japanese millet, Measured value) [%] | inhibition at 10 g/ha ([3]; Crotalaria juncea, dose 10 g/ha, read-out: Growth inhibition rate (%) of sunn-hemp, Measured value) [%] | inhibition at 100 g/ha ([3]; Crotalaria juncea, dose 100 g/ha, read-out: Growth inhibition rate (%) of sunn-hemp, Measured value) [%] | inhibition at 30 g/ha ([4]; Cyperus brevifolius, dose 30 g/ha, read-out: Growth inhibition rate (%) of green kyllinga, Measured value) [%] | inhibition at 100 g/ha ([4]; Cyperus brevifolius, dose 100 g/ha, read-out: Growth inhibition rate (%) of green kyllinga, Measured value) [%] | inhibition at 100 g/ha ([5]; Poa annua, dose 100 g/ha, read-out: Growth inhibition rate (%) of annual bluegrass, Measured value) [%] | inhibition at 30 g/ha ([6]; Persicaria lapathifolia, dose 30 g/ha, read-out: Growth inhibition rate (%) of spotted knotweed, Measured value) [%]
a mixture of (aRS,1S)-2-chloro-6′-ethyl-N-(2-methoxy-1-methylethyl)aceto-o-toluidide (80 to 100%) and (aRS,1R)-2-chloro-6′-ethyl-N-(2-methoxy-1-methylethyl)aceto-o-toluidide (20 to 0%) [S-metolachlor] | 10 | 80 | 0 | 0 | 15 | 45 | 18 | 28 | 0 |  |  |  |  |  |  |  | 
COc1cc(OC)nc(NC(=O)NS(=O)(=O)c2ncccc2C(=O)N(C)C)n1 [Nicosulfuron, 2-(4,6-dimethoxypyrimidin-2-ylcarbamoylsulfamoyl)-N,N-dimethylnicotinamide] |  |  |  |  |  |  |  |  |  | 33 | 5 | 0 | 0 | 20 | 40 | 87 | 75
